# Test results taken from patent US11524046B2, “Biofilm prevention, disruption and treatment with bacteriophage lysin” (priority 2012, dated 2022).
# Where two headings read alike, the source gives them in different places. Marks after values point to notes of the source that are not given here.
# B1: ClyS: chimeric lysin with activity against Staphylococci, detailed in WO 2010/002959; SEQ ID NO: 5 (protein, listed as Staphylococcus aureus)
# chain: METLKQAESYIKSKVNTGTDFDGLYGYQCMDLAVDYIYHVTDGKIRMWGNAKDAINNSFGGTATVYKNYPAFRPKYGDVVVWTTGNFATYGHIAIVTNPDPYGDLQYVTVLEQNWNGNGIYKTELATIRTHDYTGITHFIRPNFATESSVKKKDTKKKPKPSNRDGLNKDKIVYDRTNINYNMVLQGKSASKITVGSKAPYNLKWSKGAYFNAKIDGLGATSATRYGDNRTNYRFDVGQAVYAPGTLIYVFEIIDGWCRIYWNNHNEWIWHERLIVKEVF
# Experiments:
# [1] = test system: MRSA biofilms grown on catheters (strain ATCC BAA-42); assay: Catheter biofilm residual CFU, BacTiter-Glo luciferase estimate
# S. aureus strains = assay: PlySs2 and antibiotic MIC, broth microdilution, 80% growth inhibition (CLSI M07-A9); type: cell-based; settings: for MIC90: Staphylococcus aureus
# [2] = test system: MRSA biofilms grown on catheters (strain ATCC BAA-42); assay: Catheter biofilm eradication in vitro, methylene blue staining; settings: 1000×MIC, 24 hours
# biofilms of BAA-42 MRSA = assay: Biofilm eradication in 24-well plates, crystal violet staining; type: cell-based, S. aureus; settings: for change in biofilm, visually: 1000 ug/ml (1000×MIC), 4 hours or 6 hours; for biofilm clearance: 1000×MIC, 24 hours
# S. aureus biofilms = settings: cited from earlier work; for effect on the established S. aureus biofilms: high concentrations: oxacillin 400, vancomycin 800, clindamycin 800 (printed ag/ml, tag/ml), 24 h
# [3] = test system: ATCC BAA-42 MRSA biofilms; assay: ClyS activity on biofilm in polystyrene plates, crystal violet staining; type: cell-based, S. aureus; settings: 24 hours
# [4] = test system: methicillin resistant S. aureus MRSA strain ATCC BAA-42; assay: MIC by broth microdilution (CLSI M07-A9) against strain ATCC BAA-42; type: cell-based; settings: ATCC BAA-42
molecule,measurement,setting,value
"CCCCCCCCCC(=O)N[C@@H](Cc1c[nH]c2ccccc12)C(=O)N[C@H](CC(N)=O)C(=O)N[C@@H](CC(=O)O)C(=O)N[C@@H]1C(=O)NCC(=O)N[C@@H](CCCN)C(=O)N[C@@H](CC(=O)O)C(=O)N[C@H](C)C(=O)N[C@@H](CC(=O)O)C(=O)NCC(=O)N[C@H](CO)C(=O)N[C@@H]([C@H](C)CC(=O)O)C(=O)N[C@@H](CC(=O)c2ccccc2N)C(=O)O[C@@H]1C [Daptomycin, daptomycin]",CFU reduction,"[1]; 1×MIC, 24 hours",no CFU reduction
same,CFUs remaining in catheter biofilm,"[1]; 1000× MIC, 24 hours, from 100 million",1 million
same,CFU reduction,"[1]; 1000×MIC, 24 hours",two log reduction
same,removal of biofilm bacteria,[1]; up to concentrations of 5000×MIC,completely ineffective
same,MIC90,"S. aureus strains; DRSA (n = 8), read-out: MIC90",9.9 µM
same,MIC90,"S. aureus strains; LRSA (n = 5), read-out: MIC90",0.6 µM
same,MIC90,"S. aureus strains; MRSA, MRSA (n = 45), read-out: MIC90",0.6 µM
same,MIC90,"S. aureus strains; MSSA, MSSA (n-28), read-out: MIC90",0.6 µM
same,MIC90,"S. aureus strains; VISA, VISA (n = 10), read-out: MIC90",4.9 µM
same,MIC90,"S. aureus strains; VRSA, VRSA (n = 14), read-out: MIC90",0.6 µM
same,biofilm clearance from the catheter,[2],did not remove significant biofilm
same,"change in biofilm, visually",biofilms of BAA-42 MRSA,No change
same,biofilm clearance,biofilms of BAA-42 MRSA,no biofilm clearance
same,biofilm dissolution,"biofilms of BAA-42 MRSA; concentrations up to 10×MIC, up to 24 hours",no dissolution
"CC(=O)NC[C@H]1CN(c2ccc(N3CCOCC3)c(F)c2)C(=O)O1 [Linezolid, linezolid]",MIC50/90,S. aureus strains; DRSA (n = 8),2
same,MIC50/90 [uM],S. aureus strains; DRSA (n = 8),5.7 µM
same,MIC50/90,S. aureus strains; LRSA (n = 5),>64
same,MIC50/90 [uM],S. aureus strains; LRSA (n = 5),>183 µM
same,MIC50/90,S. aureus strains; MRSA (n = 45),2
same,MIC50/90 [uM],S. aureus strains; MRSA (n = 45),5.7 µM
same,MIC50/90,S. aureus strains; MSSA (n-28),2
same,MIC50/90 [uM],S. aureus strains; MSSA (n-28),5.7 µM
same,MIC50/90,S. aureus strains; VISA (n = 10),2
same,MIC50/90 [uM],S. aureus strains; VISA (n = 10),5.7 µM
same,MIC50/90,S. aureus strains; VRSA (n = 14),2
same,MIC50/90 [uM],S. aureus strains; VRSA (n = 14),5.7 µM
same,"change in biofilm, visually",biofilms of BAA-42 MRSA,No change
same,biofilm clearance,biofilms of BAA-42 MRSA,no biofilm clearance
"Cc1onc(-c2ccccc2)c1C(=O)N[C@@H]1C(=O)N2[C@@H]1SC(C)(C)[C@@H]2C(=O)O [Oxacillin, oxacillin]",effect on the established S. aureus biofilms,S. aureus biofilms,no effect
same,MIC50/90,S. aureus strains; MRSA (n = 45),>4*
same,MIC50/90 [uM],S. aureus strains; MRSA (n = 45),>10.0 µM
"CN[C@H](CC(C)C)C(=O)N[C@H]1C(=O)N[C@@H](CC(N)=O)C(=O)N[C@H]2C(=O)N[C@H]3C(=O)N[C@H](C(=O)N[C@H](C(=O)O)c4cc(O)cc(O)c4-c4cc3ccc4O)[C@H](O)c3ccc(c(Cl)c3)Oc3cc2cc(c3O[C@@H]2O[C@H](CO)[C@@H](O)[C@H](O)[C@H]2O[C@H]2C[C@](C)(N)[C@H](O)[C@H](C)O2)Oc2ccc(cc2Cl)[C@H]1O [Vancomycin, vancomycin]",effect on the established S. aureus biofilms,S. aureus biofilms,no effect
same,MIC90,S. aureus strains,0.7 µM
same,MIC90,S. aureus strains; MRSA,0.7 µM
same,MIC90,S. aureus strains; MSSA,0.7 µM
same,MIC90,S. aureus strains; VISA,2.7 µM
same,MIC90,S. aureus strains; VRSA,> 10.6 µM
same,"change in biofilm, visually",biofilms of BAA-42 MRSA,No change
same,biofilm clearance,biofilms of BAA-42 MRSA,no biofilm clearance
Lysostaphin: gene product of Staphylococcus simulans degrading the polyglycine crosslinks of the S. aureus cell wall,effect on S. aureus biofilms in vitro on plastic and glass surfaces,S. aureus biofilms; lysostaphin-sensitive S. aureus,disrupted the extracellular matrix
B1,biofilm dispersal,[3]; 0.032 μg/ml,somewhat
same,biofilm dispersal,[3]; 0.32 μg/ml,Reduction in stained biofilm
same,biofilm dispersal,[3]; 3.2 μg/ml (0.1× MIC),effectively disperses
same,biofilm dispersal,[3]; 32 μg/ml (1×MIC),effectively disperses
same,MIC of the ClyS lysin,[4],32 µg/mL
